Results on four molecules are retold here after paper PMC3882073 (European neuropsychopharmacology : the journal of the …, 2012).

Structures can show the parent of a compound that is named as a salt.

Series [1] relates to AMPH-induced DA release in prefrontal cortex (PFC). Description: Amphetamine. Format: in vivo, rat.
Series [2] deals with basal dopamine (DA) levels in prefrontal cortex (PFC). Description: Basal dopamine levels in PFC, in vivo microdialysis. More on the design: species or system rat.
Series [3] has as its system AMPH-induced DA release in striatum. Description: Amphetamine. The series is classed as in vivo, rat.
Series [4] concerns psychotomimetic effects of ketamine. The note with it: ref D’Souza et al., 2012, cited from earlier work.
[5] abbreviates: experiments involving Org25935 and DCS.

As for `N[C@@H]1CON=C1O` [DCS, D-cycloserine], the “Effect on AMPH-induced DA release in PFC” value in series [1] (DCS 30 mg/kg ip per day 2 weeks, 60–210 min time period) was “significantly reduced AMPH-induced DA release”; in series [1] (DCS 30 mg/kg ip per day 2 weeks, in the absence of PCP) it was “no significant effect on AMPH-induced DA release”. Also, the “Effect on PCP-induced enhancement of DA release in prefrontal cortex” value in series [1] (summary statement (abstract)) is listed as “significantly reduced PCP-induced enhancement of DA release in prefrontal cortex”. Besides, in series [2] (DCS 30 mg/kg ip per day 2 weeks), the “Effect on basal DA levels” value was “no significant effect on basal DA levels”. Further, the “Effect of drug treatment on AMPH-induced DA release in striatum” value in series [3] (setting [5]) is on record as “no significant effects”.
For `NCC(=O)O` [Glycine], in series [1] (in the presence of PCP, glycine 16% by diet 2 weeks, positive control, 60–210 min), the “Effect on AMPH-induced DA release in PFC” value is “significantly reduced DA release”.
With `COc1ccc2c(c1)CC[C@H](CN(C)CC(=O)O)[C@@H]2c1ccccc1` [Org25935], the “Effect on AMPH-induced DA release in PFC” value is on record as “no significant effect on AMPH-induced DA release” in series [1] (Org25935 5 mg, in the absence of PCP); “did not significantly reduced AMPH-induced DA release” in series [1] (Org25935 5 mg, in the presence of PCP vs PCP alone, 60–210 min); “no significant effect on AMPH-induced DA release” in series [1] (Org25935 10 mg, in the absence of PCP); “effective” in series [1] (Org25935 10 mg, in the presence of PCP vs PCP alone, 60–210 min); “significantly inhibited AMPH-induced DA release” in series [1] (Org25935, across doses, entire 0–210 min interval). Moreover, the “Effect on basal DA levels” value is “significant increase in basal DA levels” in series [2] (Org25935 5 mg/kg, across control and PCP treatment conditions, post-hoc LSD); “non-significant decrease” in series [2] (Org25935 10 mg/kg, across control and PCP treatment conditions, post-hoc LSD). In addition, the “Effect of drug treatment on AMPH-induced DA release in striatum” value in series [3] (setting [5]) is reported as “no significant effects”. In addition, the “Total symptoms induced by ketamine” value in series [4] (acute challenge study) was “reversed”. The “Acute psychotomimetic effects of ketamine” value in series [4] (healthy volunteers) was “reverse acute psychotomimetic effects of ketamine”. Moreover, the “Safety in human use” value in series [4] (humans) is reported as “safe in human use”.
`c1ccc(C2(N3CCCCC3)CCCCC2)cc1` [PCP, Phencyclidine hydrochloride]: the “Effect of PCP on AMPH-induced DA release in PFC” value in series [1] (Org25935 experiments, PCP 15 mg/kg/d, 0–210 min after AMPH 1 mg/kg sc) is recorded as “significantly increased AMPH-induced DA release”. Also, the “Mean basal dopamine (DA) levels in PFC” value in series [2] (Org25935 experiments, PCP 15 mg/kg/d minipump alone (vehicle), mean ± std dev) is 1.03 ± .80 (16) pg/10 μl. For the same molecule, in series [2] (PCP 15 mg/kg/d, experiments involving Org25935), the “Effect on basal DA levels” value is on record as “no significant effect on basal DA levels”. Moreover, in series [2] (R231857/60 experiments, rmANOVA), the “Effect of treatment on basal DA levels” value is reported as “Neither PCP (F1,49=.2, p=.6) nor R231857/R231860 (F3,49=.5, p=.7) treatment significantly altered basal DA levels”. For the same molecule, in series [3] (setting [5]), the “Effect of PCP on AMPH-induced DA release in striatum” value is “no significant effects”. Further, the “Effect on striatal DA release” value in series [3] (summary statement (abstract)) is “Neither PCP nor GTIs significantly affected striatal DA release”.
